Measurements as given in ChEMBL document CHEMBL5226339, “Strategies for Structural Modification of Small Molecules to Improve Blood-Brain Barrier Penetration: A Recent Perspective” (J Med Chem, 2021).
Blank lines part the entries; values can stand above or below the compound they belong to.

Assays:
[1] = Prodrug release in mouse assessed as unbound brain to plasma concentration of ketoprofen at 30 mg/kg, po; type: ADME, organism-based
[2] = Prodrug release in mouse assessed as nipecotic-acid concentration in brain at 15 mg/kg, iv after 30 mins; type: ADME, organism-based; details: in vivo, 0.5 h
[3] = Ratio of AUC in Brain to plasma in mouse at 10 mg/kg, po; type: ADME, organism-based; details: brain and plasma, read-out: Ratio AUC
[4] = target: Procathepsin L (Homo sapiens, UniProt P07711); experiment: Inhibition of human cathepsin L
Procathepsin L, sequence (P07711 whole entry): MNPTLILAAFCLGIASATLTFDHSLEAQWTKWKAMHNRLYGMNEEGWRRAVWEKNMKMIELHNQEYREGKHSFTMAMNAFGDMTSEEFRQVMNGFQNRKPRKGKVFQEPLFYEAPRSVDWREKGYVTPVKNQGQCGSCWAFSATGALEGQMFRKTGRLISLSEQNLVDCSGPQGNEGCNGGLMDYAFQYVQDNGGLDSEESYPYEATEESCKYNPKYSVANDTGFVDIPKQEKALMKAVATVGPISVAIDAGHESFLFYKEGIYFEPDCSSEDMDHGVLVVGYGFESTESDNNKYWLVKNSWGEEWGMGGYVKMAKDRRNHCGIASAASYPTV

[5] = Efflux ratio of apparent permeability across basolateral to apical side over apical to basolateral side in MDCK-MDR1 cells; type: ADME, cell-based, Canis lupus familiaris; details: dog
[6] = Inhibition of Toxoplasma gondii cathepsin L
[7] = Cmax in mouse brain at 48 mmol/kg, iv after 25 mins; type: ADME, organism-based; set-up: dose 48 mmol/Kg, time 25 min, route iv
[8] = AUC in mouse brain at 48 mmol/kg, iv after 25 mins; type: ADME, organism-based; set-up: time 25 min, dose 48 mmol/Kg, route iv; details: in vivo
[9] = Unbound brain-to-plasma concentration ratio in mouse at 30 mg/kg, po; type: ADME, organism-based; details: brain and plasma, read-out: K(p,uu,brain)
[10] = Apparent permeability in MDCKII-MDR1 cells; type: ADME, cell-based, Canis lupus familiaris; details: dog, MDCK-MDR1
[11] = Prodrug release in mouse brain assessed as AUC of ibuprofen after 60 mins; type: ADME, tissue-based; set-up: time 60 min; details: in vivo, 1 h
[12] = Prodrug release in mouse brain assessed as Cmax of ibuprofen after 60 mins; type: ADME, tissue-based; set-up: time 60 min; details: in vivo, 1 h

SMILES: C[C@H](C(=O)Nc1cccc(C[C@@H](N)C(=O)O)c1)c1cccc(C(=O)c2ccccc2)c1
K(p,uu,brain) [1]: 0.13

SMILES: N[C@@H](COC(=O)C1CCCNC1)C(=O)O (some centres undefined)
Drug metabolism [2]: 450 nmol/g

SMILES: CC(C(=O)O)c1cccc(C(=O)c2ccccc2)c1 (centres undefined) [KETOPROFEN]
Kp uu [9]: 0.01

SMILES: CC(c1ccc(O)c(O)c1)N(C)C.Cl (centres undefined)
Papp [10]: 1.13 ×10⁻⁶ cm/s

SMILES: CC(c1cccc(O)c1O)N(C)C.Cl (centres undefined)
Papp [10]: 23.9 ×10⁻⁶ cm/s

SMILES: C[C@H](C(=O)Nc1ccc(C[C@@H](N)C(=O)O)cc1)c1cccc(C(=O)c2ccccc2)c1
K(p,uu,brain) [1]: 0.35

SMILES: CC(c1cc(O)ccc1O)N(C)C.Cl (centres undefined)
Papp [10]: 26.3 ×10⁻⁶ cm/s

Further lines, with some results ahead:

Kp [3]: 0.52 | IC50 [4]: 23 nM | efflux ratio [5]: 0.223
SMILES: CC(C)CCN(c1nc(C#N)nc(N2CCOCC2)n1)C(C)c1ccc(F)cc1 (centres undefined)
IC50 [6]: 92 nM

Cmax [7]: 10.7 µg/g | AUC [8]: 1860 µg·min/g
SMILES: CC(C)Cc1ccc(C(C)C(=O)O)cc1 (centres undefined) [IBUPROFEN]

Kp [3]: 0.15 | IC50 [4]: 1200 nM | efflux ratio [5]: 17.2
SMILES: N#Cc1nc(N2CCOCC2)nc(N(Cc2ccc(F)cc2)CC2CCCNC2)n1 (centres undefined)
IC50 [6]: 181 nM

AUC [11]: 5870 µg·min/g | Cmax [12]: 52.6 µg/g
SMILES: CC(C)Cc1ccc(C(C)C(=O)O[C@@H](CN(C)C)[C@H]2OC(=O)C(O)=C2O)cc1 (some centres undefined)
